Target: T1, mouse ENT-1 transporter (Mus musculus, UniProt Q9JIM1)
T1 construct: expressed in transfected cells
T1 sequence (Q9JIM1 1-460): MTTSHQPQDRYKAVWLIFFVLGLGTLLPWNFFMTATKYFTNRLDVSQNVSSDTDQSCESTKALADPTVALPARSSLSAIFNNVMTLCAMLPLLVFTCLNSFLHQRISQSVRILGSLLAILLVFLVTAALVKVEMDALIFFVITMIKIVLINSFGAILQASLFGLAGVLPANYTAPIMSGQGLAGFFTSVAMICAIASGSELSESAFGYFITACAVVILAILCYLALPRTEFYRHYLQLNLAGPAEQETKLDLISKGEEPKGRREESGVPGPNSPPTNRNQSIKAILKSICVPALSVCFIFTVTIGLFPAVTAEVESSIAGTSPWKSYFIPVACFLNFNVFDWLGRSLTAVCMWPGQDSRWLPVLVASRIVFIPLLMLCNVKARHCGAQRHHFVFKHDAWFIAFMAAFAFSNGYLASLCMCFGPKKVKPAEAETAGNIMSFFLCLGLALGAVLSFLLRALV
Test: Adenosine transport activity (ENT1, [3H]-adenosine uptake inhibition)
Format: cell-based
Conditions: stable cells expressing mouse ENT-1; [2,8-3H]-adenosine 6 nM, 20 min
Description: To measure adenosine transport activity of ENT-1 mammalian cells, stable cells expressing the mouse ENT-1 transporter were plated on day 1 in 96-well culture plates at the density of 60,000 cells/well, in complete DMEM/F12 medium supplemented with glutamax, 10% FBS and 10 μg/ml puromycin. On day 2, the medium was aspirated and the cells were washed twice with uptake buffer (10 mM Hepes-Tris, pH 7.4 containing 150 mM NaCl, 1 mM CaCl2, 2.5 mM KCl, 2.5 mM MgSO4, 10 mM D-glucose) (UB). For inhibition experiments, cells were then incubated at RT with various concentrations of compounds with 1% DMSO final. Non-specific uptake was defined in the presence of 10 μM S-(4-Nitrobenzyl)-6-thioinosine (NBTI, Sigma Cat #N2255). A solution containing [2,8-^3H]-adenosine 6 nM (40 Ci/mmol, American Radiolabeled chemicals Inc, Cat #ART 0287A) was then immediately added to the wells. The plates were then incubated for 20 min with gentle shaking and the reaction was stopped by aspiration of the mixture and washing (three times) with ice-cold UB. The cells were lysed by the addition of scintillation liquid, shaken 3 hours and the radioactivity in the cells was estimated using a microplates scintillation counter (TopCount NXT, Packard).

| SMILES | IC50 [nM] |
| --- | --- |
| Cc1ncc(-c2ccc3c(c2)N(c2cncc(N4C(=O)O[C@H]5CC[C@H]54)n2)C(=O)C3(C)C)cn1 (racemic) [Example 55, rac-(1S,5R)-4-(6-(3,3-Dimethyl-6-(2-methylpyrimidin-5-yl)-2-oxoindolin-1-yl)pyrazin-2-yl)-2-oxa-4-azabicyclo[3.2.0]heptan-3-one] | 24.8 |
| Cc1ncc(-c2ccc3c(c2)N(c2cncc(N)n2)C(=O)C3(C)C)cn1 [Example 2, 1-(6-Aminopyrazin-2-yl)-3,3-dimethyl-6-(2-methylpyrimidin-5-yl)indolin-2-one] | 163 |
| Cc1ncc(-c2ccc3c(c2)N(c2cncc(N4CCCC4)n2)C(=O)C3(C)C)cn1 [Example 4, 3,3-Dimethyl-6-(2-methylpyrimidin-5-yl)-1-(6-(pyrrolidin-1-yl)pyrazin-2-yl)indolin-2-one] | 253 |
| CC(=O)Nc1cncc(N2C(=O)C(C)(C)c3ccc(-c4cnc(C)nc4)cc32)n1 [Example 5, N-(6-(3,3-Dimethyl-6-(2-methylpyrimidin-5-yl)-2-oxoindolin-1-yl)pyrazin-2-yl)acetamide] | 48 |
| Cc1ncc(-c2ccc3c(c2)N(c2cncc(N4CCC(F)(F)CC4)n2)C(=O)C3(C)C)cn1 [Example 6, 1-(6-(4,4-Difluoropiperidin-1-yl)pyrazin-2-yl)-3,3-dimethyl-6-(2-methylpyrimidin-5-yl)indolin-2-one] | 32.4 |
| Cc1ncc(-c2ccc3c(c2)N(c2cncc(NC4CC4)n2)C(=O)C3(C)C)cn1 [Example 7, 1-(6-(Cyclopropylamino)pyrazin-2-yl)-3,3-dimethyl-6-(2-methylpyrimidin-5-yl)indolin-2-one] | 39.6 |
| COCCNc1cncc(N2C(=O)C(C)(C)c3ccc(-c4cnc(C)nc4)cc32)n1 [Example 8, 1-[6-(2-Methoxyethylamino)pyrazin-2-yl]-3,3-dimethyl-6-(2-methylpyrimidin-5-yl)indol-2-one] | 87.6 |
| Cc1ncc(-c2ccc3c(c2)N(c2cncc(N4CCC(O)CC4)n2)C(=O)C3(C)C)cn1 [Example 9, 1-(6-(4-Hydroxypiperidin-1-yl)pyrazin-2-yl)-3,3-dimethyl-6-(2-methylpyrimidin-5-yl)indolin-2-one] | 21.8 |
| Cc1ncc(-c2ccc3c(c2)N(c2cncc(N4CCS(=O)(=O)CC4)n2)C(=O)C3(C)C)cn1 [Example 10, 1-(6-(1,1-Dioxidothiomorpholino)pyrazin-2-yl)-3,3-dimethyl-6-(2-methylpyrimidin-5-yl)indolin-2-one] | 29.6 |
| Cc1ncc(-c2ccc3c(c2)N(c2cncc(N4CCC(C)(O)CC4)n2)C(=O)C3(C)C)cn1 [Example 11, 1-(6-(4-Hydroxy-4-methylpiperidin-1-yl)pyrazin-2-yl)-3,3-dimethyl-6-(2-methylpyrimidin-5-yl)indolin-2-one] | 33.8 |
| COCCN(C)c1cncc(N2C(=O)C(C)(C)c3ccc(-c4cnc(C)nc4)cc32)n1 [Example 12, 1-(6-((2-Methoxyethyl)(methyl)amino)pyrazin-2-yl)-3,3-dimethyl-6-(2-methylpyrimidin-5-yl)indolin-2-one] | 54.5 |
| Cc1ncc(-c2ccc3c(c2)N(c2cncc(N4[C@@H]5COC[C@H]4C5)n2)C(=O)C3(C)C)cn1 [Example 13, 1-(6-((1R,5S)-3-Oxa-6-azabicyclo[3.1.1]heptan-6-yl)pyrazin-2-yl)-3,3-dimethyl-6-(2-methylpyrimidin-5-yl)indolin-2-one] | 137 |
| Cc1ncc(-c2ccc3c(c2)N(c2cncc(N4CCC45COC5)n2)C(=O)C3(C)C)cn1 [Example 14, 1-(6-(6-Oxa-1-azaspiro[3.3]heptan-1-yl)pyrazin-2-yl)-3,3-dimethyl-6-(2-methylpyrimidin-5-yl)indolin-2-one] | 110 |
| Cc1ncc(-c2ccc3c(c2)N(c2cncc(N4C[C@H]5C[C@@H](C4)O5)n2)C(=O)C3(C)C)cn1 [Example 16, 1-(6-((1R,5S)-6-Oxa-3-azabicyclo[3.1.1]heptan-3-yl)pyrazin-2-yl)-3,3-dimethyl-6-(2-methylpyrimidin-5-yl)indolin-2-one] | 88.7 |
| Cc1ncc(-c2ccc3c(c2)N(c2cncc(NC4COC4)n2)C(=O)C3(C)C)cn1 [Example 17, 3,3-Dimethyl-6-(2-methylpyrimidin-5-yl)-1-(6-(oxetan-3-ylamino)pyrazin-2-yl)indolin-2-one] | 244 |
| COCCNc1nc(N2C(=O)C(C)(C)c3ccc(-c4cnc(C)nc4)cc32)cnc1C [Example 19, 1-(6-((2-Methoxyethyl)amino)-5-methylpyrazin-2-yl)-3,3-dimethyl-6-(2-methylpyrimidin-5-yl)indolin-2-one] | 110 |

| SMILES | IC50 [nM] |
| --- | --- |
| Cc1ncc(-c2ccc3c(c2)N(c2cncc(N4C(=O)OC[C@H]4C(C)C)n2)C(=O)C3(C)C)cn1 [Example 21, (R)-3-(6-(3,3-Dimethyl-6-(2-methylpyrimidin-5-yl)-2-oxoindolin-1-yl)pyrazin-2-yl)-4-isopropyloxazolidin-2-one] | 238 |
| Cc1ncc(-c2ccc3c(c2)N(c2cncc(N4C(=O)OC[C@@H]4C(C)C)n2)C(=O)C3(C)C)cn1 [Example 22, (S)-3-(6-(3,3-Dimethyl-6-(2-methylpyrimidin-5-yl)-2-oxoindolin-1-yl)pyrazin-2-yl)-4-isopropyloxazolidin-2-one] | 387 |
| Cc1ncc(-c2ccc3c(c2)N(c2ccnc(N4CCOCC4)n2)C(=O)C3(C)C)cn1 [Example 23, 3,3-Dimethyl-6-(2-methylpyrimidin-5-yl)-1-(2-morpholinopyrimidin-4-yl)indolin-2-one] | 52.2 |
| Cc1ncc(-c2ccc3c(c2)N(c2nccc(N4CCOCC4)n2)C(=O)C3(C)C)cn1 [Example 24, 3,3-Dimethyl-6-(2-methylpyrimidin-5-yl)-1-(4-morpholinopyrimidin-2-yl)indolin-2-one] | 321 |
| Cc1ncc(-c2ccc3c(c2)N(c2cncc(N)c2)C(=O)C3(C)C)cn1 [Example 25, 1-(5-Aminopyridin-3-yl)-3,3-dimethyl-6-(2-methylpyrimidin-5-yl)indolin-2-one] | 466 |
| Cc1ncc(-c2ccc3c(c2)N(c2cncc(N4CCOCC4)c2)C(=O)C3(C)C)cn1 [Example 26, 3,3-Dimethyl-6-(2-methylpyrimidin-5-yl)-1-(5-morpholinopyridin-3-yl)indolin-2-one] | 17.6 |
| Cc1ncc(-c2ccc3c(c2)N(c2cccc(N4CCOCC4)n2)C(=O)C3(C)C)cn1 [Example 27, 3,3-Dimethyl-6-(2-methylpyrimidin-5-yl)-1-(6-morpholinopyridin-2-yl)indolin-2-one] | 57.5 |
| Cc1ncc(-c2ccc3c(c2)N(c2cccc(N4CCOC4=O)n2)C(=O)C3(C)C)cn1 [Example 28, 3-(6-(3,3-Dimethyl-6-(2-methylpyrimidin-5-yl)-2-oxoindolin-1-yl)pyridin-2-yl)oxazolidin-2-one] | 5 |
| Cc1ncc(-c2ccc3c(c2)N(c2ccc(C)c(N)n2)C(=O)C3(C)C)cn1 [Example 29, 1-(6-Amino-5-methylpyridin-2-yl)-3,3-dimethyl-6-(2-methylpyrimidin-5-yl)indolin-2-one] | 126 |
| CC(=O)Nc1nc(N2C(=O)C(C)(C)c3ccc(-c4cnc(C)nc4)cc32)ccc1C [Example 30, N-(6-(3,3-Dimethyl-6-(2-methylpyrimidin-5-yl)-2-oxoindolin-1-yl)-3-methylpyridin-2-yl)acetamide] | 346 |
| Cc1ncc(-c2ccc3c(c2)N(c2ccc(C)c(N4CCOCC4)n2)C(=O)C3(C)C)cn1 [Example 31, 3,3-Dimethyl-1-(5-methyl-6-morpholinopyridin-2-yl)-6-(2-methylpyrimidin-5-yl)indolin-2-one] | 40.1 |
| Cc1ncc(-c2ccc3c(c2)N(c2ccc(C)c(N4CCOC4=O)n2)C(=O)C3(C)C)cn1 [Example 32, 3-(6-(3,3-Dimethyl-6-(2-methylpyrimidin-5-yl)-2-oxoindolin-1-yl)-3-methylpyridin-2-yl)oxazolidin-2-one] | 32.4 |
| Cc1ncc(-c2ccc3c(c2)N(c2cccc4[nH]ccc24)C(=O)C3(C)C)cn1 [Example 33, 1-(1H-Indol-4-yl)-3,3-dimethyl-6-(2-methylpyrimidin-5-yl)indolin-2-one] | 742 |
| Cc1ncc(-c2ccc3c(c2)N(c2cncc4[nH]ccc24)C(=O)C3(C)C)cn1 [Example 34, 3,3-Dimethyl-6-(2-methylpyrimidin-5-yl)-1-(1H-pyrrolo[2,3-c]pyridin-4-yl)indolin-2-one] | 838 |
| Cc1ncc(-c2ccc3c(c2)N(c2cnc4c(n2)[nH]c(=O)n4C)C(=O)C3(C)C)cn1 [Example 35, 5-(3,3-Dimethyl-6-(2-methylpyrimidin-5-yl)-2-oxoindolin-1-yl)-1-methyl-1H-imidazo[4,5-b]pyrazin-2(3H)-one] | 496 |
